Assay results as given in US12209145B2, “PCSK9 antagonist compounds” (Merck Sharp & Dohme LLC, priority 2018, dated 2025).

Key:
[1] = molecular target: T1, PCSK9 (Homo sapiens, UniProt Q8NBP7); test: PCSK9 Alexa FRET Plus TR-FRET assay (displacement of AlexaFluor647 tagged cyclic peptide Reagent B); format: binding; details: 0.5 nM biotinylated PCSK9, 960 nM AF cyclic peptide Reagent B, Ki calculated from IC50 and KD of AF peptide
T1 construct: Biotinylated PCSK9 was obtained commercially; purchased
Experimental: (§1) The following is a description of the assays used to determine activity of compounds of the invention, and any comparator compounds reported, toward PCSK9 antagonism. Biotinylated PCSK9 was obtained commercially.
A solution containing 1 nM biotinylated PCSK9+2.5 nM Lance Streptavidin Europium (Strep-Eu) is made in 50 mM HEPES pH 7.4, 0.15 M NaCl, 5 mM CaCl2, 0.01% BSA, and 0.01% Surfactant P20. A separate solution containing 1920 nM of the AlexaFluor tagged cyclic peptide is made in the same buffer system. An Echo is used to transfer 0.075 ul of compound plus 0.675 ul of DMSO to each well of an assay plate followed by the addition of 15 ul of PCSK9+Stept-Eu and 15 ul of AF peptide. The final assay volume is 30.750 ul containing 0.5 nM PCSK9, 1.25 nM Strep-Eu, and 960 nM AF cyclic peptide. The reaction is incubated at room temperature for at least two hours prior to fluorescence measurements using an Envision Multilabel Reader. IC50 values are determined by fitting data to a sigmoidal dose-response curve using nonlinear regression. Ki is then calculated from the IC50 and the KD of AF cyclic peptide. Counts (B-counts) of the europium-labeled PCSK9 are followed to observe if compounds are adversely affecting PCSK9. A fall off of the B-counts is likely indicates a false positive of inhibition. Data from this procedure is reported as “P=‘numerical value’ (nanomolar)”
Activity data obtained by one or both of the above-described procedures is reported for selected example compounds of the invention in the following format: Example No.: A (standard TR Fret)=‘numerical value’; P (Alexa Fret plus standard TR Fret)=‘numerical value’/, note that all values reported are nanomolar.

[2] = molecular target: T1, PCSK9; test: PCSK9 Alexa FRET Ultra TR-FRET assay (displacement of AlexaFluor647 tagged cyclic peptide); format: binding; details: 0.5 nM biotinylated PCSK9, 960 nM AF cyclic peptide, Ki calculated from IC50 and KD of AF peptide
Experimental: as §1
A solution containing 1 nM biotinylated PCSK9+2.5 nM Lance Streptavidin Europium (Strep-Eu) is made in 50 mM HEPES pH 7.4, 0.15 M NaCl, 5 mM CaCl2, 0.01% BSA, and 0.01% Surfactant P20. A separate solution containing 1920 nM of the AlexaFluor tagged cyclic peptide is made in the same buffer system. An Echo is used to transfer 0.015 ul of compound plus 0.735 ul of DMSO to each well of an assay plate followed by the addition of 15 ul of PCSK9+Stept-Eu and 15 ul of AF peptide. The final assay volume is 30.750 ul containing 0.5 nM PCSK9, 1.25 nM Strep-Eu, and 960 nM AF cyclic peptide. The reaction is incubated at room temperature for at least two hours prior to fluorescence measurements using an Envision Multilabel Reader. IC50 values are determined by fitting data to a sigmoidal dose-response curve using nonlinear regression. Ki is then calculated from the IC50 and the KD of AF cyclic peptide. Counts (B-counts) of the europium-labeled PCSK9 are followed to observe if compounds are adversely affecting PCSK9. A fall off of the B-counts is likely indicates a false positive of inhibition. Data from this procedure is reported as “Ki Ultra=‘numerical value’ (data reported is nanomolar)”

T1 sequence (Q8NBP7 153-692): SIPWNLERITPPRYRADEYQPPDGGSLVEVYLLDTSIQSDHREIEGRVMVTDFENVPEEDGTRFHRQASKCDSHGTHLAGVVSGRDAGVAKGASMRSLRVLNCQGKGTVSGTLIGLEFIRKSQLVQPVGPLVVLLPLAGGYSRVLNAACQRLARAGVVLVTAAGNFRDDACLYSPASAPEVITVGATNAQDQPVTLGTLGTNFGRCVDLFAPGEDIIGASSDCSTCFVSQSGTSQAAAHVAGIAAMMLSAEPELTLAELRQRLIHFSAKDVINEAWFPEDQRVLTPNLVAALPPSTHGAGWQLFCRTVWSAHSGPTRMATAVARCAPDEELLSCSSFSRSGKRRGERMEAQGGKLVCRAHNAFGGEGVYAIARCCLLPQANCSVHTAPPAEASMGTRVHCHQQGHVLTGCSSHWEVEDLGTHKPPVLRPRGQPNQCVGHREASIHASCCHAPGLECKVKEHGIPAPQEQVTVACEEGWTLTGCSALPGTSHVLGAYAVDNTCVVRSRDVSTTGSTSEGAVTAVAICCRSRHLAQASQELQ

COc1ccc(C[C@@H]2NC(=O)[C@H]([C@@H](C)O)NC(=O)[C@@H]3[C@@H]4CCN3C(=O)[C@@H]3Cc5cn(c6ccc(F)cc56)CCCCCCN(Cc5ccc(cc5)CCNC(=O)[C@]5(C)CCCN5C2=O)C(=O)CCC(=O)N[C@@H](CCCC[N+](C)(C)C)C(=O)N[C@H](CNC(=O)CCOCCOCC[N+](C)(C)C)C(=O)N[C@@H](Cc2cccc(c2)CNC(=O)CO4)C(=O)N3)cc1 (stereo in doubt) [Ex-24]
Ki ([1]; Ki Plus): 8.12 pM | Ki ([2]; Ki Ultra): 7.67 pM

COc1ccc(C[C@@H]2NC(=O)[C@H]([C@@H](C)O)NC(=O)[C@@H]3[C@@H]4CCN3C(=O)[C@@H]3Cc5cn(c6ccc(F)cc56)CCCCCCN(Cc5ccc(cc5)CCNC(=O)[C@]5(C)CCCN5C2=O)C(=O)CCC(=O)N[C@@H](C)C(=O)N[C@H](CN)C(=O)N[C@@H](Cc2cccc(c2)CNC(=O)CO4)C(=O)N3)cc1 [Ex-01]
Ki ([1]; Ki Plus): < 5.58 pM | Ki ([2]; Ki Ultra): 4.6 pM

COc1ccc(C[C@@H]2NC(=O)[C@H]([C@@H](C)O)NC(=O)[C@@H]3[C@@H]4CCN3C(=O)[C@@H]3Cc5cn(c6ccc(F)cc56)C/C=C\CCCN(Cc5ccc(cc5)CCNC(=O)[C@]5(C)CCCN5C2=O)C(=O)CCC(=O)N[C@@H](CNC(=O)CCOCCOCC[N+](C)(C)C)C(=O)N[C@H](C)C(=O)N[C@@H](Cc2cccc(c2)CNC(=O)CO4)C(=O)N3)cc1 [Ex-04]
Ki ([1]; read-out: Ki Plus): ≤ 5.58 pM | Ki ([2]; read-out: Ki Ultra): 4.71 pM

COc1ccc(C[C@@H]2NC(=O)[C@H]([C@@H](C)O)NC(=O)[C@@H]3[C@@H]4CCN3C(=O)[C@@H]3Cc5cn(c6ccc(F)cc56)C/C=C/CCCN(Cc5ccc(cc5)CCNC(=O)[C@]5(C)CCCN5C2=O)C(=O)CCC(=O)N[C@@H](CNC(=O)CCOCCOCC[N+](C)(C)C)C(=O)N[C@H](C)C(=O)N[C@@H](Cc2cccc(c2)CNC(=O)CO4)C(=O)N3)cc1 [Ex-05]
Ki ([1]; read-out: Ki Plus): 9.62 pM | Ki ([2]; read-out: Ki Ultra): 33 pM

COc1ccc(C[C@@H]2NC(=O)[C@H]([C@@H](C)O)NC(=O)[C@@H]3[C@@H]4CCN3C(=O)[C@@H]3Cc5cn(c6ccc(F)cc56)C/C=C/CCCN(Cc5ccc(cc5)CCNC(=O)[C@]5(C)CCCN5C2=O)C(=O)CCC(=O)N[C@@H](C)C(=O)N[C@H](CNC(=O)CCCCC[N+](C)(C)C)C(=O)N[C@@H](Cc2cccc(c2)CNC(=O)CO4)C(=O)N3)cc1 [Ex-06]
Ki ([1]; read-out: Ki Plus): 5.68 pM | Ki ([2]; read-out: Ki Ultra): 3.42 pM

COc1ccc(C[C@@H]2NC(=O)[C@H]([C@@H](C)O)NC(=O)[C@@H]3[C@@H]4CCN3C(=O)[C@@H]3Cc5cn(c6ccc(F)cc56)C/C=C/CCCN(Cc5ccc(cc5)CCNC(=O)[C@]5(C)CCCN5C2=O)C(=O)CCC(=O)N[C@H]2CN(C(=O)CCOCCOCC[N+](C)(C)C)CCCCC(=O)NC[C@@H](NC2=O)C(=O)N[C@@H](Cc2cccc(c2)CNC(=O)CO4)C(=O)N3)cc1 [Ex-07]
Ki ([1]; read-out: Ki Plus): 59.1 pM | Ki ([2]; read-out: Ki Ultra): 67.5 pM

COc1ccc(C[C@@H]2NC(=O)[C@H]([C@@H](C)O)NC(=O)[C@@H]3[C@@H]4CCN3C(=O)[C@@H]3Cc5cn(c6ccc(F)cc56)Cc5cn(nn5)Cc5cc(ccc5CNC(=O)CCC(=O)N[C@@H](C)C(=O)N[C@H](CNC(=O)CCOCCOCC[N+](C)(C)C)C(=O)N[C@@H](Cc5cccc(c5)CNC(=O)CO4)C(=O)N3)CCNC(=O)[C@]3(C)CCCN3C2=O)cc1 [Ex-08]
Ki ([1]; read-out: Ki Plus): 15.7 pM | Ki ([2]; read-out: Ki Ultra): 68.3 pM

COc1ccc(C[C@@H]2NC(=O)[C@H]([C@@H](C)O)NC(=O)[C@@H]3[C@@H]4CCN3C(=O)[C@@H]3Cc5cn(c6ccc(F)cc56)Cc5cn(nn5)Cc5cc(ccc5CNC(=O)CCC(=O)N[C@@H](C)C(=O)N[C@H](CNC(=O)CCOCCOCC[N+](C)(C)C)C(=O)N[C@@H](Cc5cccc(c5)CNC(=O)CO4)C(=O)N3)CCNC(=O)[C@]3(C)CCCN3C2=O)cc1 [Ex-09]
Ki ([1]; Ki Plus): 91.9 pM | Ki ([2]; Ki Ultra): 247 pM

COc1ccc(C[C@@H]2NC(=O)[C@H]([C@@H](C)O)NC(=O)[C@@H]3[C@@H]4CCN3C(=O)[C@@H]3Cc5cn(c6ccc(F)cc56)Cc5cn(nn5)C[C@@H](NC(=O)CCC(=O)N[C@@H](C)C(=O)N[C@H](CNC(=O)CCOCCOCC[N+](C)(C)C)C(=O)N[C@@H](Cc5cccc(c5)CNC(=O)CO4)C(=O)N3)c3ccc(cc3)CCNC(=O)[C@]3(C)CCCN3C2=O)cc1 [Ex-10]
Ki ([1]; read-out: Ki Plus): 5.74 pM | Ki ([2]; read-out: Ki Ultra): 24.9 pM

COc1ccc(C[C@@H]2NC(=O)[C@H]([C@@H](C)O)NC(=O)[C@@H]3[C@@H]4CCN3C(=O)[C@@H]3Cc5cn(c6ccc(F)cc56)Cc5cn(nn5)C[C@@H](NC(=O)CCC(=O)N[C@@H](CNC(=O)CCOCCOCC[N+](C)(C)C)C(=O)N[C@H](C)C(=O)N[C@@H](Cc5cccc(c5)CNC(=O)CO4)C(=O)N3)c3ccc(cc3)CCNC(=O)[C@]3(C)CCCN3C2=O)cc1 [Ex-11]
Ki ([1]; read-out: Ki Plus): 43.3 pM | Ki ([2]; read-out: Ki Ultra): 207 pM

COc1ccc(C[C@@H]2NC(=O)[C@H]([C@@H](C)O)NC(=O)[C@@H]3[C@@H]4CCN3C(=O)[C@@H]3Cc5cn(c6ccc(F)cc56)Cc5cn(nn5)CC(NC(=O)CCCCCC(=O)N[C@H](CNC(=O)CCOCCOCC[N+](C)(C)C)C(=O)N[C@@H](Cc5cccc(c5)CNC(=O)CO4)C(=O)N3)c3ccc(cc3)CCNC(=O)[C@]3(C)CCCN3C2=O)cc1 [Ex-12]
Ki ([1]; read-out: Ki Plus): 14.5 pM | Ki ([2]; read-out: Ki Ultra): 22.5 pM

COc1ccc(C[C@@H]2NC(=O)[C@H]([C@@H](C)O)NC(=O)[C@@H]3[C@@H]4CCN3C(=O)[C@@H]3Cc5cn(c6ccc(F)cc56)Cc5cn(nn5)CCN(Cc5ccc(cc5)CCNC(=O)[C@]5(C)CCCN5C2=O)C(=O)CCC(=O)N[C@@H](CNC(=O)CCOCCOCC[N+](C)(C)C)C(=O)N[C@H](C)C(=O)N[C@@H](Cc2cccc(c2)CNC(=O)CO4)C(=O)N3)cc1 [Ex-13]
Ki ([1]; read-out: Ki Plus): 145 pM | Ki ([2]; read-out: Ki Ultra): 477 pM

COc1ccc(C[C@@H]2NC(=O)[C@H]([C@@H](C)O)NC(=O)[C@@H]3[C@@H]4CCN3C(=O)[C@@H]3Cc5cn(c6ccc(F)cc56)Cc5cn(nn5)CCN(Cc5ccc(cc5)CCNC(=O)[C@]5(C)CCCN5C2=O)C(=O)CCC(=O)N[C@@H](C)C(=O)N[C@H](CNC(=O)CCOCCOCC[N+](C)(C)C)C(=O)N[C@@H](Cc2cccc(c2)CNC(=O)CO4)C(=O)N3)cc1 [Ex-14]
Ki ([1]; read-out: Ki Plus): 16 pM | Ki ([2]; read-out: Ki Ultra): 21 pM

COc1ccc(C[C@@H]2NC(=O)[C@H]([C@@H](C)O)NC(=O)[C@@H]3[C@@H]4CCN3C(=O)[C@@H]3Cc5cn(c6ccc(F)cc56)Cc5cn(nn5)CCN(Cc5ccc(cc5)CCNC(=O)[C@]5(C)CCCN5C2=O)C(=O)CCCC(=O)N[C@@H](CNC(=O)CCOCCOCC[N+](C)(C)C)C(=O)N[C@H](C)C(=O)N[C@@H](Cc2cccc(c2)CNC(=O)CO4)C(=O)N3)cc1 [Ex-15]
Ki ([1]; read-out: Ki Plus): 103 pM | Ki ([2]; read-out: Ki Ultra): 260 pM

COc1ccc(C[C@@H]2NC(=O)[C@H]([C@@H](C)O)NC(=O)[C@@H]3[C@@H]4CCN3C(=O)[C@@H]3Cc5cn(c6ccc(F)cc56)Cc5cn(nn5)CCN(Cc5ccc(cc5)CCNC(=O)[C@]5(C)CCCN5C2=O)C(=O)CCCCCC(=O)N[C@H](CNC(=O)CCOCCOCC[N+](C)(C)C)C(=O)N[C@@H](Cc2cccc(c2)CNC(=O)CO4)C(=O)N3)cc1 [Ex-16]
Ki ([1]; read-out: Ki Plus): 14.2 pM | Ki ([2]; read-out: Ki Ultra): 51.4 pM

COc1ccc(C[C@@H]2NC(=O)[C@H]([C@@H](C)O)NC(=O)[C@@H]3[C@@H]4CCN3C(=O)[C@@H]3Cc5cn(c6ccc(F)cc56)CCCCN(Cc5ccc(cc5)CCNC(=O)[C@]5(C)CCCN5C2=O)C(=O)CCC(=O)N[C@@H](C)C(=O)N[C@H](CNC(=O)CCOCCOCC[N+](C)(C)C)C(=O)N[C@@H](Cc2cccc(c2)CNC(=O)CO4)C(=O)N3)cc1 [Ex-28]
Ki ([1]; read-out: Ki Plus): ≤ 5.58 pM

COc1ccc(C[C@@H]2NC(=O)[C@H]([C@@H](C)O)NC(=O)[C@@H]3[C@@H]4CCN3C(=O)[C@@H]3Cc5cn(c6ccc(F)cc56)CCCCCCN(Cc5ccc(cc5)CCNC(=O)[C@]5(C)CCCN5C2=O)C(=O)CCC(=O)N[C@@H](C)C(=O)N[C@H](CNC(=O)CCOCC[N+](C)(C)C)C(=O)N[C@@H](Cc2cccc(c2)CNC(=O)CO4)C(=O)N3)cc1 [Ex-31]
Ki ([1]; Ki Plus): < 5.58 pM
